Laboratory results published in PMC2745596 (Bioorganic & Medicinal Chemistry Letters, 2008).

Assays:
[1] = target: SARS-CoV 3CLpro (Severe acute respiratory syndrome coronavirus, UniProt P0C6X7); format: biochemical
[2] = tested on: SARS-CoV Urbani strain; format: cell-based

SMILES	potency enhancement over 5 (enzyme IC50) [1]	antiviral activity (in words) [2]
O=C(Oc1cncc(Cl)c1)c1cccc2[nH]ccc12 [Inhibitor 10]	10 fold	
O=C(On1nnc2ccccc21)c1ccc2[nH]ccc2c1 [Inhibitor 3]		did not exhibit any antiviral activity
